Read-outs that look alike come from different tables or passages of the source.
Legend:
Vapor pressure = assay: Vapor pressure
Experimental: The preferred vapor pressure of the solvents is less than about 1 mm Hg at 20° C., and preferably the vapor pressure is less than 0.5 mm Hg at 20° C.

dust mites = assay: Dust mite kill efficacy, submersion method; assay type: in vivo; conditions: for 1% HC Solution: % kill at 30 min / 1% HC Solution: time to 100% kill: 1% HC solution with 1% Stepanol WAC; for 1% HC Solution: % kill at 30 min: None = no kill; for 1% HC with 7% DPnP Solution: % kill at 30 min / 1% HC with 7% DpnP at 9.5 pH: % kill at 30 min / 1% HC with 7% DPnP Solution: time to 100% kill / 1% HC with 7% DpnP at 9.5 pH: time to 100% kill: 1% Stepanol WAC; for 1% HC with 7% DpnP at 9.5 pH: % kill at 30 min / 1% HC with 7% DpnP at 9.5 pH: time to 100% kill: pH 9.5; for 8% Solution: time to 100% kill: 8% glycol ether/ester in water with 1% Stepanol WAC, mites immersed, maximum time period 30 minutes; for >50% kill in 30 min.: 8% or saturated solutions in water, dust mites; for 1% HC Solution: time to 100% kill: solution pH (6.30-7.26); for 1% HC Solution: time to 100% kill / 1% HC with 7% DPnP Solution: time to 100% kill / 1% HC with 7% DpnP at 9.5 pH: time to 100% kill: maximum 30 minutes
Source text: To test the efficacy of the cleaning composition containing glycol ether, glycol ether ester, and combinations thereof for their ability to kill dust mites, a submersion method was used. The dust mites were immersed in the following solutions with a 1% or 8% glycol ether, glycol ether ester or a combination thereof. In addition to the glycol ether and or glycol ether ester, the solution also contained about 1% Stepanol® WAC (sodium lauryl sulfate) surfactant and the remainder of the solution was water. The pH of the aqueous solution was maintained between about 5 to 10.
After the dust mites were immersed in the solution they were tested each minute to determine if they were still alive or not. To test if the mites were alive after treatment, they are viewed under a dissecting microscope and poked with a 26-guage needle to induce movement. […] Since sometimes dust mites may appear to-be dead after treatment and then recover a few days later, a treated population and a control sample were placed in a high humidity desiccators and poke tests were conducted over several days following the initial treatment to ensure that the initial reported kill rates were accurate.

[1] = Solubility in water at 20° C.

SMILES | Vapor Pressure (mm Hg) (Vapor pressure) | 8% Solution: time to 100% kill (dust mites) | >50% kill in 30 min. (dust mites) | Solubility in water at 20° C. [1] | Vapor Pressure (mm Hg) (Vapor pressure; at 20° C.) | further results
CCCCOCCOCCOC(C)=O [Butyl Carbitol Acetate, diethylene glycol n-butyl ether acetate] | 0.04 mm Hg | 20 min | Yes |  |  | 1% HC Solution: % kill at 30 min (dust mites): 50% kill; 1% HC with 7% DPnP Solution: % kill at 30 min (dust mites): 90% kill; 1% HC with 7% DpnP at 9.5 pH: % kill at 30 min (dust mites): 80% kill
CCCCOCCOC(C)=O [Butyl Cellosolve Acetate, ethylene glycol n-butyl ether acetate] |  | 4 min | Yes | 1% | 0.29 mm Hg | 1% HC Solution: time to 100% kill (dust mites): 22 min; 1% HC with 7% DPnP Solution: time to 100% kill (dust mites): 18 min; 1% HC with 7% DpnP at 9.5 pH: time to 100% kill (dust mites): 16 min
CCOCCOCCO [Diethylene glycol ethyl ether] | 0.12 mm Hg |  | No |  |  | 
COCCOCCO [Diethylene glycol methyl ether] |  |  | no | 100% | 0.2 mm Hg | 
CCCCOCCOCCO [Diethylene glycol n-butyl ether] |  |  | No | 100% | 0.02 mm Hg | 
COC(C)COC(C)COC(C)=O (stereo not shown) [Dipropylene glycol methyl ether acetate] | 0.05 mm Hg |  | Yes |  |  | 
COC(C)COC(C)CO (stereo not shown) [Dipropylene glycol methyl ether] | 0.17 mm Hg |  | No |  |  | 
CCCOC(C)COC(C)CO (stereo not shown) [Dipropylene glycol n-propyl ether] |  |  | No | 18% | 0.05 mm Hg | 
OCCOc1ccccc1 [Dowanol Eph, ethylene glycol phenyl ether] |  | 17 min |  |  |  | 1% HC Solution: % kill at 30 min (dust mites): 95% kill; 1% HC with 7% DPnP Solution: % kill at 30 min (dust mites): 95% kill; 1% HC with 7% DpnP at 9.5 pH: % kill at 30 min (dust mites): 50% kill
CC(O)COc1ccccc1 (stereo not shown) [Dowanol PPh, propylene glycol phenol ether] |  | 7 min |  |  |  | 1% HC Solution: time to 100% kill (dust mites): 22 min; 1% HC with 7% DPnP Solution: time to 100% kill (dust mites): 30 min; 1% HC with 7% DpnP at 9.5 pH: time to 100% kill (dust mites): 26 min
CCCCOCC(C)O (stereo not shown) [Dowanol PnB, propylene glycol n-butyl ether] | 0.62 mm Hg | 17 min | Yes |  |  | 1% HC Solution: % kill at 30 min (dust mites): None; 1% HC with 7% DPnP Solution: time to 100% kill (dust mites): 29 min; 1% HC with 7% DpnP at 9.5 pH: % kill at 30 min (dust mites): 60% kill
CCCCOC(C)COC(C)COC(C)CO (stereo not shown) [Dowanol TPnB, Tripropylene glycol n-butyl ether] |  | 20 min | Yes |  | <0.01 mm Hg | 1% HC Solution: % kill at 30 min (dust mites): None; 1% HC with 7% DPnP Solution: % kill at 30 min (dust mites): 90% kill; 1% HC with 7% DpnP at 9.5 pH: % kill at 30 min (dust mites): No kill
CCCCOCCO [Ethylene glycol n-butyl ether] |  |  | No |  | 0.6 mm Hg | 
CCCOCCO [Ethylene glycol n-propyl ether] | 1.3 mm Hg |  | No |  |  | 
CCCCCCOCCOCCO [Hexyl Carbitol, diethylene glycol monohexyl ether] |  | 25 min |  |  |  | 1% HC Solution: % kill at 30 min (dust mites): None; 1% HC with 7% DPnP Solution: time to 100% kill (dust mites): 26 min; 1% HC with 7% DpnP at 9.5 pH: % kill at 30 min (dust mites): No kill
CCCCCCOCCO [Hexyl Cellosolve, ethylene glycol monohexyl ether] | <1.0 mm Hg | 11 min | Yes |  |  | 1% HC Solution: time to 100% kill (dust mites): 15 min; 1% HC with 7% DPnP Solution: time to 100% kill (dust mites): 14 min; 1% HC with 7% DpnP at 9.5 pH: time to 100% kill (dust mites): 26 min
COCC(C)OC(C)=O (stereo not shown) [Propylene glycol methyl ether acetate] | 3.8 mm Hg |  | No |  |  | 
COCC(C)O (stereo not shown) [Propylene glycol methyl ether] |  |  | No | 100% | 8.1 mm Hg | 
CCCOCC(C)O (stereo not shown) [Propylene glycol n-propyl ether] |  |  | No | 100% | 1.8 mm Hg | 

Reference: patent US20070191480A1, “Gycol Ether Miticides and Anti-Allergen Treatments” (priority 2004, published 2007)
